Laboratory results from ChEMBL document CHEMBL3988442, “University of Dundee, Small-Polar-MMV Screening Library” (2021).
Values joined by “and” are separate entries in the source; they are usually repeats but may differ in a detail not shown here. Equal entries are not always repeated.

Assays:
[1] = molecular target: T1, Ubiquitin-activating enzyme e1, putative (Leishmania donovani (strain BPK282A1), UniProt E9BSI1); assay: Leishmania donovani Ubiquitin Activating Enzyme (LdE1); assay type: functional
T1 sequence (E9BSI1 whole entry): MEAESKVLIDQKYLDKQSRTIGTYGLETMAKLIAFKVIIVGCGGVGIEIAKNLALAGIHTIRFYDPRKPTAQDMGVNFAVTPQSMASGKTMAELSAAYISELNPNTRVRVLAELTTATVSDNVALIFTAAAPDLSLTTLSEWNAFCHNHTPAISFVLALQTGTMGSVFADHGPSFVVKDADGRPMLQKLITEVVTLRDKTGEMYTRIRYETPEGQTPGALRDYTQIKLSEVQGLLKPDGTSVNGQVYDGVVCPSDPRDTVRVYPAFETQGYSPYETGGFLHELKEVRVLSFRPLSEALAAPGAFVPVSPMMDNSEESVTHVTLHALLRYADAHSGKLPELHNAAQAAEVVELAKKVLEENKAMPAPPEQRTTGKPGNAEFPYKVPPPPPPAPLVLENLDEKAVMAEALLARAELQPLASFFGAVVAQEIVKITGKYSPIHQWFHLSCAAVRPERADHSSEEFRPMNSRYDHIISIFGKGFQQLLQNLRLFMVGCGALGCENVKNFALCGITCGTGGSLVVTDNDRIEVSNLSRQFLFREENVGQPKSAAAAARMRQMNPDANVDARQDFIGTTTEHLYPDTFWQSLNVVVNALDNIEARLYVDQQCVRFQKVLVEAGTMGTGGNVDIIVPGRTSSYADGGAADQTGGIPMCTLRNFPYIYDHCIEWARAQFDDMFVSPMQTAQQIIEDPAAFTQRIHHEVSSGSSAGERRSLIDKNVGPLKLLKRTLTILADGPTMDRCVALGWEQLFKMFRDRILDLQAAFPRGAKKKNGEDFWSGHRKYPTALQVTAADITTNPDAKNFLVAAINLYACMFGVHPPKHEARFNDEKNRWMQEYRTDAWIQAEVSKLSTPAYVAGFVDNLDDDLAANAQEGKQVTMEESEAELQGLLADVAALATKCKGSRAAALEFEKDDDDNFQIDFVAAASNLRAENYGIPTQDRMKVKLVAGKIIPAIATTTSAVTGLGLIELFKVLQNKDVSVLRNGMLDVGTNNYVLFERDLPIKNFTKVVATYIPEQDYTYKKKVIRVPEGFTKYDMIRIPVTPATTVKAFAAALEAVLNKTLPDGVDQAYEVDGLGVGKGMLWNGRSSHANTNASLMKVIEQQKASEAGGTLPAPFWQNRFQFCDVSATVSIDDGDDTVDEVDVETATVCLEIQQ

[2] = molecular target: T2, Coenzyme A biosynthesis bifunctional protein CoaBC (Mycobacterium tuberculosis (strain ATCC 25618 / H37Rv), UniProt P9WNZ1); assay: Biomol Green assay for MtCoaBC inhibitor, OD650 read; assay type: functional
T2 sequence (P9WNZ1 whole entry): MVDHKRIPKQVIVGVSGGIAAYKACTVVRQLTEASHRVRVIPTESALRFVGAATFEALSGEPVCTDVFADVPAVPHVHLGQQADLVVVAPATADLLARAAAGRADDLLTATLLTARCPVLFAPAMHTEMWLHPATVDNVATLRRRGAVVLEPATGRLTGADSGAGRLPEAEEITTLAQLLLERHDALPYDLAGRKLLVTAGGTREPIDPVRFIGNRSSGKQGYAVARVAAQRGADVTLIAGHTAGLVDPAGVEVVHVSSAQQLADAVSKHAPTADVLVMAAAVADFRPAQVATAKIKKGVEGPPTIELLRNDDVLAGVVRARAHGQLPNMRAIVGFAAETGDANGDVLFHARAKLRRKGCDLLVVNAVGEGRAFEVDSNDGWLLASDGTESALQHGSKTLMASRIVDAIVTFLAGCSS

Plasmodium falciparum [3] = assay: Plasmodium falciparum sporozoite viability assay; assay type: functional, organism-based; settings: for IC50: Plasmodium falciparum
Plasmodium falciparum [4] = assay: Calibr Malaria Delayed Death Assay SOP; assay type: functional, organism-based; settings: for IC50: Plasmodium falciparum
[5] = microbe, parasite or virus in culture; settings: Mycobacterium tuberculosis, 96 h, read-out: pIC50 (converted)
[6] = microbe, parasite or virus in culture; settings: Mycobacterium tuberculosis, 72 h, read-out: pIC50 (converted)
[7] = In vitro enzyme assay to detect hydrolysis of chlorophenol red-beta-D-[…] directly proportional to the number of Toxoplasma stably expressing beta-galactosidase; assay type: functional, organism-based, Toxoplasma gondii; settings: Toxoplasma gondii
Leishmania donovani = assay: Leishmania intramacrophage assay; assay type: functional, organism-based; settings: Leishmania donovani
Histidine--tRNA ligase = molecular target: T3, Histidine--tRNA ligase (Leishmania infantum, UniProt A4I591); assay: Leishmania infantum Histidine tRNA synthetase (LdHisRS); assay type: functional
T3 sequence (A4I591 whole entry): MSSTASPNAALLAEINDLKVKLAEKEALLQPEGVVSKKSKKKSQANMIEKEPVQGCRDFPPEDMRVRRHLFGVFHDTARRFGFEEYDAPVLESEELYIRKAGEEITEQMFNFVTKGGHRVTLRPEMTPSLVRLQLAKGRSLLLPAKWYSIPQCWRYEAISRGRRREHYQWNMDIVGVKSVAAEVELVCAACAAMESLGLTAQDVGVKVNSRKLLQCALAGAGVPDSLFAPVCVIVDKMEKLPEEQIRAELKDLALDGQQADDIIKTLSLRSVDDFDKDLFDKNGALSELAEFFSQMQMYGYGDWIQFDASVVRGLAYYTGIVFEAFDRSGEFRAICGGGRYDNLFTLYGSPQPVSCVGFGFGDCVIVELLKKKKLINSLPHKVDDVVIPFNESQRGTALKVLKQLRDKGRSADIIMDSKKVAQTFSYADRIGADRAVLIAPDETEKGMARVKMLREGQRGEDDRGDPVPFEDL

[8] = system: Mycobacterium tuberculosis; assay: Cornell M. t heat shock assay; assay type: functional, organism-based; settings: Mycobacterium tuberculosis

| Compound | pIC50 (Plasmodium falciparum [3]) | IC50 (Plasmodium falciparum [3]) [µM] | also measured |
| --- | --- | --- | --- |
| CC(O)CN1CCN(C(=O)c2ccc(N(C)C)nn2)CC1 (stereo not given) |  |  | IC50 [1]: > 100 µM |
| CC(Cn1cccn1)NCc1nc(-c2ccsc2)no1 (stereo not given) |  |  | IC50 [1]: > 100 µM |
| COc1cc(CNCc2ccnc(N3CCCC3)c2)cc(OC)c1 |  |  | IC50 [1]: > 100 µM |
| Cc1nc(C(C)(C)C)sc1C(=O)NCCNc1ncccc1C#N |  |  | IC50 [1]: > 100 µM |
| CCc1nc(C)c(C(=O)NCCNc2ncccc2C#N)s1 |  |  | IC50 [1]: > 100 µM |
| CCCc1nc(C)c(C(=O)NCCNc2ncccc2C#N)s1 |  |  | IC50 [1]: > 100 µM |
| CC(C)c1nc2cc(NC(=O)c3n[nH]c4c3CCC4)ccc2n1C | 6.833 and 6.465 |  | IC50 [2]: > 30.2 µM |
| COc1ccc(-c2ccc(C3CNCCO3)nc2)cc1.Cl (stereo not given) | 7.404 | 0.073 | pIC50 (Plasmodium falciparum [4]): 6.456; IC50 (Plasmodium falciparum [4]): 0.19 µM |
| CN(C)CCNC(=O)C1Cc2nc(-c3ccccc3)sc2N1CC1CC1 (stereo not given) |  | 3.59 | IC50 [5]: > 50.1 µM; IC50 [6]: > 50.1 µM |
| CC(=O)Nc1ncc(S(=O)(=O)Nc2ccc3c(c2)OCCO3)s1 | 6.905 | 0.144 | IC50 [7]: > 50.1 µM |
| Cc1ccc(-c2ccc(C3CNCCO3)nc2)cc1.Cl (stereo not given) | 7.716 | 0.0231 | pIC50 (Plasmodium falciparum [4]): 6.712; IC50 (Plasmodium falciparum [4]): 0.108 µM |
| c1cnc(-c2nc(CN3CCN(CC4CC4)CC3)cs2)nc1 | 5.511 | 2.26 | IC50 (Leishmania donovani): > 50.1 µM |
| Cl.Clc1ccc(-c2ccc(C3CNCCO3)nc2)cc1 (stereo not given) |  | 0.075 | pIC50 (Plasmodium falciparum [4]): 6.505; IC50 (Plasmodium falciparum [4]): 0.433 µM |
| COc1cc(F)c(NCc2nc3ccccc3n2C)cc1OC |  | 0.26 | IC50 (Histidine--tRNA ligase): 59.7 µM and 57.6 µM |
| COC(=O)CSCc1noc(-c2ccc(C)cc2)n1 | 6.885 and 7.313 |  | IC50 [5]: > 50.1 µM; IC50 [6]: 24.4 µM |
| O=C(Nc1cccnc1)C1Cc2nc(-c3ccsc3)sc2N1CC1CC1.O=C(O)C(F)(F)F (stereo not given) | 5.393 | 3 | IC50 (Histidine--tRNA ligase): 27.4 µM and 35.2 µM |

| Compound | pIC50 (Plasmodium falciparum [3]) | IC50 (Plasmodium falciparum [3]) [µM] | also measured |
| --- | --- | --- | --- |
| Cc1cccc(NC2CCN(C(=O)Nc3ccc(F)c(F)c3)CC2)n1 |  | 7.62 | IC50 [8]: > 49 µM |
| Cc1cn2c(n1)C(CNCC1=Cc3cc(Cl)ccc3OC1)CCC2 (stereo not given) | 5.932 | 0.908 | pIC50 (Plasmodium falciparum [4]): 5.847; IC50 (Plasmodium falciparum [4]): 1.66 µM |
| Cc1ccsc1-c1cccc(-c2ccn(CC3CCNC3)n2)c1 (stereo not given) | 5.798 | 2.58 | IC50 [5]: 21.3 µM; IC50 [6]: 23.8 µM |
| OC1CCN(c2ccc(CNc3nc4ccccc4s3)cc2F)CC1 | 7.297 and 6.882 |  |  |
| COC(=O)CSCc1noc(-c2ccc(Cl)cc2)n1 | 6.573 | 0.454 | IC50 [5]: > 50.1 µM; IC50 [6]: > 50.1 µM |
| CSc1ccccc1C(=O)Nc1ccc(OC2CCN(C)CC2)cc1 | 6.337 and 5.999 |  |  |
| COCCN(C)c1ccc(NCc2cscn2)nc1 | 6.387 | 0.391 |  |
| c1cncc(OCc2nc(C3CC3)nn2-c2ccc3c(c2)OCCO3)c1 | 5.428 | 3.84 |  |
| CN(C)CCNc1ccc(-c2nc(-c3ccccc3F)no2)cn1 | 7.212 and 6.908 |  |  |
| CC(C)C(=O)N1CCN(Cc2csc(-c3ncccn3)n2)CC1 | 5.96 | 1.42 | IC50 (Leishmania donovani): > 50.1 µM |
| Cc1csc(NC(=O)c2cnc(C3CCCN3)cn2)n1.Cl (stereo not given) | 7.11 | 0.153 | IC50 [8]: > 100 µM |
| CC(C)c1nc2c(n1C)CCN(Cc1nc(-c3ccoc3)no1)C2 | 5.631 | 3.15 |  |
| Cc1cccc(Nc2cc(C3CCCN(CC(N)=O)C3)ccn2)n1.O=CO.O=CO (stereo not given) | 6.742 | 0.186 |  |
| C(=C\c1ccc(CN2CCCC2)cn1)/c1ccccc1 | 7.171 | 0.113 |  |
| COC(=O)CCCNC(=O)N1CCc2c([nH]c3ccc(Cl)cc23)C1 | 5.609 and 6.035 |  |  |
